Where two headings read alike, the source gives them in different places.
Experiments:
rats = assay: Daily 28-day repeated dose toxicology study, rats; format: in vivo, rat; details: 0, 10, 50, or 100 mg/kg/day, daily 28 days
Protocol: (§1) Based on negative in vivo and in vitro genotoxicity studies, the carcinogenic risk of MDMA·HCl is low. No tumors were reported after daily 28-day repeated dose toxicology studies of MDMA in rats (0, 10, 50, or 100 mg/kg/day) or dogs (0, 3, 9, or 15 mg/kg/day).

dogs [1] = assay: Daily 28-day repeated dose toxicology study, dogs; format: in vivo, dog; details: 0, 3, 9, or 15 mg/kg/day, daily 28 days
Protocol: as §1

[2] = test system: bacterial reverse mutation assay (Ames test); assay: In vitro bacterial reverse mutation assay (Ames test); format: cell-based; details: with or without metabolic activation
Source text: MDMA was not mutagenic with or without metabolic activation in the in vitro bacterial reverse mutation assay (Ames test).

male rats = assay: In vivo genotoxicity (micronucleated polychromatic erythrocytes), male rats; parameters: species or system rat; details: oral, doses up to 100 mg/kg day over two days
Source text: No statistically significant differences in micronucleated polychromatic erythrocytes or bone marrow cytotoxicity were observed across all dose levels.

healthy individuals [3] = assay: Study MPKF: ECG / QTcF; format: in vivo, human
Source text: Specifically, there was no change in mean QTcF over time above 10 ms at any timepoint.

healthy individuals [4] = assay: Study MPKF: SE scores and C-SSRS; parameters: species or system human; details: in vivo
Protocol: Those increases from baseline were observed between 0.5 to 4 hours after dosing. […] The other scores remained relatively stable in comparison to baseline across the sessions.

[5] = test system: participants with PTSD of moderate or greater severity; assay: MAPP2 Phase 3: Sheehan Disability Scale (SDS); format: in vivo, human
Source text: FIG. 36 and FIG. 37 show the time course of improvement in Clinician Administered PTSD Scale for DSM-5 (CAPS-5) total severity score versus placebo. Each show a treatment difference between MDMA and placebo after 3 medication sessions with psychological intervention. […] Between the second and third treatment sessions, the difference between the groups appeared to continue to increase in both studies. The primary efficacy measure was change from baseline in the CAPS-5 total severity score at 18 weeks, which was evaluated 2 months after the final dosing session. The CAPS-5 is a 30-item, clinician-rated scale used to assess severity of PTSD symptoms and diagnostic status according to DSM-5 criteria, as described herein. Scores on the CAPS 5 range from 0 to 80, with higher scores indicating more severe PTSD symptoms. In both studies, a secondary efficacy measure was change from baseline in Sheehan Disability Scale (SDS) mean item scores at 18 weeks. The modified SDS is a 3-item, clinician-rated scale measuring the degree of functional impairment in work, family, and social life. Scores on the SDS mean items range from 0 to 10, with higher scores indicating more functional impairment. In these studies, the efficacy assessments were administered by blinded independent raters 18 to 30 days after medication sessions 1 and 2.
MAPP2 was a Phase 3 randomized, placebo-controlled, 2-arm, double-blind, multi-site study conducted to investigate the efficacy and safety of MDMA-AT in participants with PTSD of moderate or greater severity. This study included 3 experimental sessions of therapy combined with either MDMA or placebo. During Experimental Session 1, participants received a split dose of 120 mg (80 mg+40 mg). Participants received an escalated split dose of 180 mg during Experimental Sessions 2 and 3 unless there were tolerability issues or the participant declined.
The primary outcome measure, the CAPS-5, evaluated changes in PTSD symptom severity and the secondary outcome measure, the SDS, evaluated changes in functional impairment. Both measures were assessed by a blinded centralized language-specific IR pool.
The de jure estimand of treatment efficacy was used to determine the effect of MDMA-AT on SDS total score in the mITT analysis set.

human plasma proteins = details: literature (Wan Aasim 2017); cited from earlier work
[6] = cited from earlier work
human Caco-2 cells = assay: Caco-2 permeability
[7] = molecular target: organic cation transporter (OCT1) (Homo sapiens, UniProt O15245); assay: Transporter inhibition, OCT1; details: at supratherapeutic concentrations
organic cation transporter (OCT1), sequence (O15245 whole entry): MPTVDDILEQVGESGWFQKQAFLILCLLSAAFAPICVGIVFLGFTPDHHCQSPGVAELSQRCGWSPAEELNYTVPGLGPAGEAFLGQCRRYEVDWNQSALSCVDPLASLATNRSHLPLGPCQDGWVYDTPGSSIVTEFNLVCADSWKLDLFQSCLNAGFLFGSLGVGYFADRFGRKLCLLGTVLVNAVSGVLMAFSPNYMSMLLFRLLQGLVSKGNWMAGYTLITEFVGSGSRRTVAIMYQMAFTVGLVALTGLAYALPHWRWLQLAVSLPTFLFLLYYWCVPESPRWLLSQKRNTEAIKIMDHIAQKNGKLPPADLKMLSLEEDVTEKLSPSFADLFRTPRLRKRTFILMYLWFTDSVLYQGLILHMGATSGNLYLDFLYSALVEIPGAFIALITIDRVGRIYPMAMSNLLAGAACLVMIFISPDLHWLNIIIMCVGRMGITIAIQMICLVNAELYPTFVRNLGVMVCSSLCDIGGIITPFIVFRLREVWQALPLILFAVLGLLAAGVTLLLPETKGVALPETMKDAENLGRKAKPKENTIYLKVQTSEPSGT

OCT2 = OCT2 (Homo sapiens, UniProt O15244); assay: Transporter inhibition, OCT2; details: at supratherapeutic concentrations
OCT2, sequence (O15244 whole entry): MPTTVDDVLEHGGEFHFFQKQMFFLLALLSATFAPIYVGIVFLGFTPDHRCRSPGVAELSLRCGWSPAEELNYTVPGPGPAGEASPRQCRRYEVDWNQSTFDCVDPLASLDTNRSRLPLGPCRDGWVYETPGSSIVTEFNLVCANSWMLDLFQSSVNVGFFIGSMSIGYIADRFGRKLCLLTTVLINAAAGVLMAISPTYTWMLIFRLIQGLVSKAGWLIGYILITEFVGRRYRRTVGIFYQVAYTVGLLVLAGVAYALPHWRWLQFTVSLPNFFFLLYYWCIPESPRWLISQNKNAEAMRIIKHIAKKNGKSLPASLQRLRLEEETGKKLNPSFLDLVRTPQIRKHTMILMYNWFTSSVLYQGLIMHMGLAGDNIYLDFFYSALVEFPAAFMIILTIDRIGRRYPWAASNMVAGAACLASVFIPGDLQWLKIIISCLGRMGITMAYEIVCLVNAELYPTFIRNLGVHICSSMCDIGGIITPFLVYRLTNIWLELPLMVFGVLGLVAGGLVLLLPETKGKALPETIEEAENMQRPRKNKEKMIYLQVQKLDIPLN

OAT3 = OAT3 (Homo sapiens, UniProt Q8TCC7); assay: Transporter inhibition, OAT3
OAT3, sequence (Q8TCC7 whole entry): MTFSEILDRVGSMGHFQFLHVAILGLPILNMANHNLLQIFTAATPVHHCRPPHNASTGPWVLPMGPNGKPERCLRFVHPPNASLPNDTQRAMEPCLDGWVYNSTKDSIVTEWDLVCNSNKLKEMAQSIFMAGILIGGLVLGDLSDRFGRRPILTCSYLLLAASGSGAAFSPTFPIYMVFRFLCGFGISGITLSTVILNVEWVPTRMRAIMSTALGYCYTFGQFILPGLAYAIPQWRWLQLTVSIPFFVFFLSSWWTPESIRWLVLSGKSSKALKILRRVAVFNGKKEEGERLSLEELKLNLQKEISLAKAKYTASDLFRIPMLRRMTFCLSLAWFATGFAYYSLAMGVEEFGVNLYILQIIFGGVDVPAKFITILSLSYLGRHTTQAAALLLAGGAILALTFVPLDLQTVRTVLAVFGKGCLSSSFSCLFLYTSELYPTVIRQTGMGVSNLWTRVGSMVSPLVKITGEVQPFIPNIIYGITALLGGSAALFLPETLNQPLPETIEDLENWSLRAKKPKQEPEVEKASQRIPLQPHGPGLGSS

[8] = test system: CYP2B6, CYP2D6, CYP2C19, CYP1A2, CYP3A4, CYP2C9, CYP2C8; assay: CYP enzymes metabolizing MDMA; details: less contribution by CYP2C19, CYP1A2, CYP3A4, CYP2C9, and CYP2C8
MATE2-K = MATE2-K (Homo sapiens, UniProt Q86VL8); assay: Transporter inhibition, MATE2-K
MATE2-K, sequence (Q86VL8 1-566 isoform Q86VL8-3): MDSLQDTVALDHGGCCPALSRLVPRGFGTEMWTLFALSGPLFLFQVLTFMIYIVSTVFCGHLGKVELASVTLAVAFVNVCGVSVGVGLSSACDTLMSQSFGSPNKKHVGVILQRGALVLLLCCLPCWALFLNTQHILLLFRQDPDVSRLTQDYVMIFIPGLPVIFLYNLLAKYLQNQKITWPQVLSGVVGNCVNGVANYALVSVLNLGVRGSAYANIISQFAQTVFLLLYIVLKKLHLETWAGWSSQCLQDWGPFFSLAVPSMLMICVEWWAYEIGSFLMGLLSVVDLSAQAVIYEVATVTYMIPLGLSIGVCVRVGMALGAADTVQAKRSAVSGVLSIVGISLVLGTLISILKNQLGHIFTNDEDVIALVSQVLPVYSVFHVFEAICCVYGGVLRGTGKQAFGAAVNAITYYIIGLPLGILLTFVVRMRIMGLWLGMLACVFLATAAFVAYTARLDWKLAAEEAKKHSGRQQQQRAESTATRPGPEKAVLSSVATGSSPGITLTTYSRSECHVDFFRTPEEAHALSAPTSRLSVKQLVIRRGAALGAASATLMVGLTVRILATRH

OATP1B3 = OATP1B3 (Homo sapiens, UniProt Q9NPD5); assay: Transporter inhibition, OATP1B3
OATP1B3, sequence (Q9NPD5 whole entry): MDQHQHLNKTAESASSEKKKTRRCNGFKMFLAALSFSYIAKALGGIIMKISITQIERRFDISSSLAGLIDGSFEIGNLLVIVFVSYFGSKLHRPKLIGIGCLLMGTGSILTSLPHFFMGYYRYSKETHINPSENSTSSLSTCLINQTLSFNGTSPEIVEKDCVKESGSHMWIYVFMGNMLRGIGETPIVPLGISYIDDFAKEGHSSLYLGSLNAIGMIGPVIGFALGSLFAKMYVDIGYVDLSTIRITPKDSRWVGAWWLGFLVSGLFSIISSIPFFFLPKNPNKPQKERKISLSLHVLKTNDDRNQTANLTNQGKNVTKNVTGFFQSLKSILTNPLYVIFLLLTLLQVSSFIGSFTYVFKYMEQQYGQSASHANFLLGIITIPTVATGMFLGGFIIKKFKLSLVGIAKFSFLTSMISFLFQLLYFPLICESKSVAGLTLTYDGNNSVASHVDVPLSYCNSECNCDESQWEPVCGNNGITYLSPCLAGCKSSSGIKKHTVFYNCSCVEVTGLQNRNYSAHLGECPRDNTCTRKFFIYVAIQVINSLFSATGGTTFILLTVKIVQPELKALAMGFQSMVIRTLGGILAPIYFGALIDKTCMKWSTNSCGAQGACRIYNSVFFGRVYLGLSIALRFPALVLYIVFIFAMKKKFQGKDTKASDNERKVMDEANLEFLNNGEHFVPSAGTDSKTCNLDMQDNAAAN

dogs [9] = assay: 28-day repeat-dose toxicity, weekly oral, dogs; details: any dose
[10] = fasted group, 12-hour timepoint
[11] = MAPP2, mITT, Baseline (Visit 3)
[12] = MAPP2, mITT, Baseline to Visit 19
[13] = MAPP2, mITT, Visit 19 (Primary Endpoint)
[14] = end of treatment, 52 patients (study not given)

CNC(C)Cc1ccc2c(c1)OCO2 (centres unmarked) [MDMA, 3,4-methylenedioxymethamphetamine]
tumors (rats): No tumors
tumors (dogs [1]): No tumors
mutagenicity, Ames test [2]: not mutagenic
genotoxicity in vivo (male rats): no signs of genotoxicity
change in mean QTcF over time (healthy individuals [3]; any timepoint): ≤ 10 ms
participants with mean QTcF increase from baseline above 30 ms (healthy individuals [3]; [10]): 6.3%
participants with mean QTcF increase from baseline above 30 ms, n (healthy individuals [3]; [10]): 1 participant
impact on ECG parameters (healthy individuals [3]; in vivo): no significant impact
QTcF intervals (healthy individuals [3]; no participant above, any group): ≤ 450 ms
C-SSRS scores (healthy individuals [4]): No abnormal C-SSRS scores
SDS Total Score CFB, LSMean ([5]; MAPP2, mITT, MMRM, Visit 19): −3.31
SDS Total Score CFB, LSMean for Treatment Difference ([5]; MAPP2, mITT, MMRM, vs placebo with therapy, Visit 19): −1.20
SDS Total Score, Mean [5, 11]: 6.0
SDS Total Score, Median [5, 11]: 6.3
SDS Total Score CFB, Mean [5, 12]: −3.3
SDS Total Score CFB, Median [5, 12]: −4.0
SDS Total Score, Mean ([5]; MAPP2, mITT, Visit 8): 4.1
SDS Total Score, Median ([5]; MAPP2, mITT, Visit 8): 4.3
SDS Total Score, Mean ([5]; MAPP2, mITT, Visit 13): 2.9
SDS Total Score, Median ([5]; MAPP2, mITT, Visit 13): 2.7
SDS Total Score, Mean [5, 13]: 2.7
SDS Total Score, Median [5, 13]: 2.3
reduction in SDS total scores ([5]; MAPP2, MMRM, de jure estimand, mITT): −3.31
SDS Remission (SDS mean item score < 3) [5, 14]: (55.8) %
SDS Remission (SDS mean item score < 3), n [5, 14]: 29
SDS Responder (4 point or greater reduction from baseline SDS mean item score) [5, 14]: (53.8) %
SDS Responder (4 point or greater reduction from baseline SDS mean item score), n [5, 14]: 28
bound to plasma proteins in humans (human plasma proteins): 51%
unchanged MDMA excreted in urine ([6]; oral 1.0 mg/kg MDMA): 8%
unchanged MDMA excreted in urine ([6]; oral 1.6 mg/kg MDMA): 11%
permeability in human Caco-2 cells (human Caco-2 cells): highly permeable
inhibition of OCT1 [7]: inhibits
inhibition of OCT2 (OCT2): inhibits
inhibition of OAT3 (OAT3): not an inhibitor
metabolizing CYP enzymes [8]: metabolized primarily by CYP2B6 and CYP2D6
inhibition of MATE2-K (MATE2-K): not an inhibitor
inhibition of OATP1B3 (OATP1B3): not an inhibitor
neurohistopathology of the brain (dogs [9]): No morphologic changes

Reference: patent US20250134855A1, “CO[…] AND METHODS OF USING SAME” (LYKOS THERAPEUTICS, INC., priority 2022, published 2025)
